Assays:
Plasmodium falciparum [1] = assay: (§1) Growth inhibition of Plasmodium falciparum ring stage in infected erythrocytes by DAPI growth assay; assay type: functional, organism-based
Plasmodium falciparum [2] = assay: as §1; assay type: functional, organism-based; remark: listed apart in the source
Plasmodium falciparum [3] = assay: Growth inhibition of Plasmodium falciparum as reduced [3H]hypoxanthine incorporation; assay type: functional, organism-based
Plasmodium falciparum [4] = assay: microbe, parasite or virus in culture; settings: 3D7, 72 h
Description: Growth inhibition of Plasmodium falciparum 3D7 ring stage in infected erythrocytes after 72 hrs in DAPI fluorimetry

Plasmodium falciparum [5] = assay: microbe, parasite or virus in culture; settings: HB3, 72 h
Description: Growth inhibition of Plasmodium falciparum HB3 ring stage in infected erythrocytes after 72 hrs in DAPI fluorimetry

Plasmodium falciparum [6] = assay: microbe, parasite or virus in culture; settings: Dd2, 72 h
Description: Growth inhibition of Plasmodium falciparum Dd2 ring stage infected erythrocytes after 72 hrs by DAPI fluorimetry

Work on O=C1C(O)=C([C@H]2CC[C@H](c3ccc(Cl)cc3)CC2)C(=O)c2ccccc21 [ATOVAQUONE] yielded an IC50 (Plasmodium falciparum [1]) of 0.66 nM, an IC50 (Plasmodium falciparum [2]) of 0.63 nM and an IC50 (Plasmodium falciparum [3]) of 0.61 nM.

Work on C=C[C@H]1CN2CC[C@H]1C[C@H]2[C@H](O)c1ccnc2ccc(OC)cc12 [QUININE] yielded an IC50 (Plasmodium falciparum [1]) of 66.5 nM, an IC50 (Plasmodium falciparum [2]) of 69.2 nM and an IC50 (Plasmodium falciparum [3]) of 62.8 nM.

For CCc1nc(N)nc(N)c1-c1ccc(Cl)cc1 [PYRIMETHAMINE], the IC50 (Plasmodium falciparum [4]) was 10 nM, the IC50 (Plasmodium falciparum [5]) was 49.9 nM and the IC50 (Plasmodium falciparum [6]) was 44.1 nM.

C[C@@H]1CC[C@H]2[C@@H](C)C(=O)O[C@@H]3O[C@@]4(C)CC[C@@H]1[C@]32OO4 [ARTEMISININ] gave an IC50 (Plasmodium falciparum [1]) of 10.8 nM, an IC50 (Plasmodium falciparum [2]) of 9.67 nM and an IC50 (Plasmodium falciparum [3]) of 10.1 nM. It also gave an IC50 (Plasmodium falciparum [4]) of 10.8 nM, an IC50 (Plasmodium falciparum [5]) of 9.7 nM and an IC50 (Plasmodium falciparum [6]) of 12.3 nM.

With OC(c1cc(C(F)(F)F)nc2c(C(F)(F)F)cccc12)C1CCCCN1 (stereo not drawn) [MEFLOQUINE] the IC50 (Plasmodium falciparum [4]) was 12.3 nM, the IC50 (Plasmodium falciparum [5]) was 9.63 nM and the IC50 (Plasmodium falciparum [6]) was 26 nM.

Source: ChEMBL document CHEMBL1142194, “High-throughput Plasmodium falciparum growth assay for malaria drug discovery” (Antimicrob Agents Chemother, 2007)
